We go through one compound from publication PMC7337064, “Parsing the functional specificity of Siderocalin/Lipocalin 2/NGAL for siderophores and related small-molecule ligands” (Journal of Structural Biology: X, 2019).

The target of assay [1] is T1, Scn (Homo sapiens, UniProt P80188).
T1 construct: made in house
The assay can be described thus: Fe-ENT/c-di-GMP competition mixing experiment (ultrafilter retentates). The conditions noted are these: Scn premixed with 25-fold molar excess c-di-GMP, then equimolar Fe-ENT, washed in ultrafilter. It counts as binding. The source says: Li and coworkers reported that c-di-GMP could compete with bacterial ferric siderophores for Scn binding, alleviating Scn blockade of bacterial iron acquisition during infection ([Li et al., 2015]). This conclusion was based on a computational inverse docking screen, isothermal titration calorimetry (ITC) binding assays, and bacterial growth assays. However, c-di-GMP is not particularly complementary in shape to the Scn calyx, and lacks elements crucial for calyx binding, though its net negative charge does complement the overall positive charge of the calyx. Also, the reported micromolar KD by ITC for the Scn/c-di-GMP interaction was orders-of-magnitude weaker than the sub-nanomolar KDs of Scn for ferric complexes of bacterial CAM-type siderophores previously determined by FQ ([Abergel et al., 2006a], [Abergel et al., 2006b], [Goetz et al., 2002], [Hoette et al., 2008], [Miethke and Skerra, 2010]). [We noted that Li and coworkers also reported a discrepant micromolar KD for the Scn/Fe-ENT interaction by ITC.] However, this conundrum was easily resolved by a simple mixing experiment not previously performed (Fig. 7C). Colorless apo-Scn protein was premixed with a 25-fold molar excess of colorless c-di-GMP, at a concentration well above the reported micromolar KD, and allowed to equilibrate. Fe-ENT, which is colored a deep red, was then added at an equimolar ratio to Scn. […]

Assay [2] deals with Scn. Further details: method as in Li et al., 2015. The conditions noted are these: ref Li et al., 2015; cited from earlier work.

T1 sequence (P80188 21-198): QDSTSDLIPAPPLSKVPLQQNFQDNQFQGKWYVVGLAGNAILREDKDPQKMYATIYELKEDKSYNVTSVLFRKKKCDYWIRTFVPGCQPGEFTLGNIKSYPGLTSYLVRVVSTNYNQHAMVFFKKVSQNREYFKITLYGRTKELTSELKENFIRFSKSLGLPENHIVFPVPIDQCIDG

Regarding `Nc1nc2c(ncn2[C@@H]2O[C@@H]3COP(=O)(O)O[C@H]4[C@@H](O)[C@H](n5cnc6c(=O)[nH]c(N)nc65)O[C@@H]4COP(=O)(O)O[C@H]3[C@H]2O)c(=O)[nH]1` [c-di-GMP, cyclic diguanylate monophosphate], the “competition with Fe-ENT for Scn binding” value in assay [1] is “too weak to impede binding of ferric siderophores”. Also, the “KD by ITC” value in assay [2] is “micromolar”.
